# “And” between values parts separate entries of the source, which are not always exact repeats. Identical values can stand only once. Like-named read-outs stand apart in the source and are kept apart here.
# Experiments:
# [1] = target: T1, mCB1R (Mus musculus, UniProt P47746); test: biochemical; format: binding; conditions: mouse brain membranes
# T1 construct: from tissue; host or cells: brain of male C57BL/6J mice
# [2] = target: T2, hABHD12 (Homo sapiens, UniProt Q8N2K0); test: ABHD12 activity; format: biochemical; conditions: for ABHD12 % inhibition: single point, 10 5 µM [sic]
# T2 construct: expressed in transfected cells
# T2 sequence (Q8N2K0 1-398): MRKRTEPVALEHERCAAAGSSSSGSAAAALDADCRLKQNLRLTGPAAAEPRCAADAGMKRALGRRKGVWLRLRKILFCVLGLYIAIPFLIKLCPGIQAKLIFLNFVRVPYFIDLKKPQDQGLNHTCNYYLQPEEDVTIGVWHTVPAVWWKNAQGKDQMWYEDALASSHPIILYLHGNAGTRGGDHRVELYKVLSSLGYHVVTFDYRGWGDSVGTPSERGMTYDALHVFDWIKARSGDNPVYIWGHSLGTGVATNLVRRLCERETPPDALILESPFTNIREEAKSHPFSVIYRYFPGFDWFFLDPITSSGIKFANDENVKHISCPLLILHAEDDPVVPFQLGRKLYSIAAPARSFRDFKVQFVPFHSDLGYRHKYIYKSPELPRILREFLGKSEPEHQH
# Excerpt: HEK293T cells were obtained from American Type Culture Collection (ATCC, Manassas, VA, USA). Lipofectamine 2000 was obtained from Life Technologies (Carlsbad, CA, USA) and geneticin from InvivoGen. Cell culture medium, FBS, and cell culture supplements were from Invitrogen (Carlsbad, CA, USA). pCMV6-AC-hABHD6 and pCMV6-XL4-hABHD12 were a kind gift from Prof Jarmo T. Laitinen. hABHD12 sequence was subsequently inserted in a pcDNA3.1 plasmid in order to generate a stable cell line. The effect of CB2R ligands on ABHD6 and ABHD12 hydrolytic activity was determined using cell homogenate from hABHD6 and hABHD12 overexpressing HEK293T cells (40 μg total protein per condition). Samples were pre-incubated with the compounds (10 μM in the screening assay and concentrations in the range 1 nM—50 μM for the dose-response curves) in […] (pH=7.6) buffer containing 0.1%(w/v) BSA. DMSO was used as vehicle control and WWL70 10 μM or THL 20 μM as positive controls. [^3H]-2-OG (10 μM final concentration) was added and after incubation of 5 min at 37 °C, the reaction was stopped by the addition of 400 μl of ice-cold CHCl3:MeOH (1:1). The samples were vortex and centrifuged (16,100g 10 min 4 °C). Aliquots (200 μl) of the aqueous phase were assayed for tritium content by liquid scintillation spectroscopy. The values obtained for each measurement were corrected for non-specific hydrolysis (non-ABHD6 mediated) by subtracting the signal obtained in the hydrolysis of [^3H]- 2-OG by non-transfected HEK293T.
# [3] = target: T3, Rat recombinant TRPA1 (Rattus norvegicus, UniProt Q6RI86); test: cell-based; format: cell-based; conditions: for EC50: read-out: TRPA1 Potency EC50; for IC50: vs AITC 100μM, 5 min pre-incubation, read-out: TRPA1 IC50 for antagonism or desensitization
# T3 construct: expressed in transfected cells
# T3 sequence (Q6RI86 whole entry): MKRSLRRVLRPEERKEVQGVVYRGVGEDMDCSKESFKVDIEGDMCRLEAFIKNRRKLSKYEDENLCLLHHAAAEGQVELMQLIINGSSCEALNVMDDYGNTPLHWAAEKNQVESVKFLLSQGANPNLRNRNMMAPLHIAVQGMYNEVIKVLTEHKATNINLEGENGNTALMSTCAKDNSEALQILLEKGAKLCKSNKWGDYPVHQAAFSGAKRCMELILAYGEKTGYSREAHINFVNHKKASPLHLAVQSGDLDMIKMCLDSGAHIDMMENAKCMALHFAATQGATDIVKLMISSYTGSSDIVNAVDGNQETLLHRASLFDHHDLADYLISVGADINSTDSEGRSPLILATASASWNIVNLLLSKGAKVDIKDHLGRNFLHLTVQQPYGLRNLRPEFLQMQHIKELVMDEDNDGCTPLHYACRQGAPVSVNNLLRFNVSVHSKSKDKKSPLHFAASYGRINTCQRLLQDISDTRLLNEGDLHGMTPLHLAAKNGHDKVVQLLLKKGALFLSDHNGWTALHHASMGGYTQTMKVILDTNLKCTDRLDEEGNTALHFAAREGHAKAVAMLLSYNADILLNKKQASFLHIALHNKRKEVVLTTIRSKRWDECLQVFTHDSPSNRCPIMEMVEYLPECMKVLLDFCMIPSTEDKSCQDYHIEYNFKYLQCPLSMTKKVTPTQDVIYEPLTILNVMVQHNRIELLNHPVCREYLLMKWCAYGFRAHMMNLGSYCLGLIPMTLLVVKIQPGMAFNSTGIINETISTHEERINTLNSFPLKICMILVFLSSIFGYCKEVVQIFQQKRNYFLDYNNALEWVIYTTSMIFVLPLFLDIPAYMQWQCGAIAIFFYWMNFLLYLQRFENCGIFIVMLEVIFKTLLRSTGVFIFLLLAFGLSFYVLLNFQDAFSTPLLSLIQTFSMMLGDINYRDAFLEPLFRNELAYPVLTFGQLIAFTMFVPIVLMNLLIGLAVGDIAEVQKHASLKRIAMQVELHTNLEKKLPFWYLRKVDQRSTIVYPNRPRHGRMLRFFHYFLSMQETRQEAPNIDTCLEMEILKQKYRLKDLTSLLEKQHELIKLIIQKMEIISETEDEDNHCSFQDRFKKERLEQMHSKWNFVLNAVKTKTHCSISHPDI
# [4] = target: T4, Rat recombinant TRPM8 (Rattus norvegicus, UniProt Q8R455); test: TRP channel [Ca2+]i assay; format: cell-based; conditions: read-out: TRPM8 IC50 for antagonism of icilin
# T4 construct: expressed in transfected cells; host or cells: HEK293 (TRPM8-HEK-293, gift from Mario van der Stelt)
# T4 sequence (Q8R455 whole entry): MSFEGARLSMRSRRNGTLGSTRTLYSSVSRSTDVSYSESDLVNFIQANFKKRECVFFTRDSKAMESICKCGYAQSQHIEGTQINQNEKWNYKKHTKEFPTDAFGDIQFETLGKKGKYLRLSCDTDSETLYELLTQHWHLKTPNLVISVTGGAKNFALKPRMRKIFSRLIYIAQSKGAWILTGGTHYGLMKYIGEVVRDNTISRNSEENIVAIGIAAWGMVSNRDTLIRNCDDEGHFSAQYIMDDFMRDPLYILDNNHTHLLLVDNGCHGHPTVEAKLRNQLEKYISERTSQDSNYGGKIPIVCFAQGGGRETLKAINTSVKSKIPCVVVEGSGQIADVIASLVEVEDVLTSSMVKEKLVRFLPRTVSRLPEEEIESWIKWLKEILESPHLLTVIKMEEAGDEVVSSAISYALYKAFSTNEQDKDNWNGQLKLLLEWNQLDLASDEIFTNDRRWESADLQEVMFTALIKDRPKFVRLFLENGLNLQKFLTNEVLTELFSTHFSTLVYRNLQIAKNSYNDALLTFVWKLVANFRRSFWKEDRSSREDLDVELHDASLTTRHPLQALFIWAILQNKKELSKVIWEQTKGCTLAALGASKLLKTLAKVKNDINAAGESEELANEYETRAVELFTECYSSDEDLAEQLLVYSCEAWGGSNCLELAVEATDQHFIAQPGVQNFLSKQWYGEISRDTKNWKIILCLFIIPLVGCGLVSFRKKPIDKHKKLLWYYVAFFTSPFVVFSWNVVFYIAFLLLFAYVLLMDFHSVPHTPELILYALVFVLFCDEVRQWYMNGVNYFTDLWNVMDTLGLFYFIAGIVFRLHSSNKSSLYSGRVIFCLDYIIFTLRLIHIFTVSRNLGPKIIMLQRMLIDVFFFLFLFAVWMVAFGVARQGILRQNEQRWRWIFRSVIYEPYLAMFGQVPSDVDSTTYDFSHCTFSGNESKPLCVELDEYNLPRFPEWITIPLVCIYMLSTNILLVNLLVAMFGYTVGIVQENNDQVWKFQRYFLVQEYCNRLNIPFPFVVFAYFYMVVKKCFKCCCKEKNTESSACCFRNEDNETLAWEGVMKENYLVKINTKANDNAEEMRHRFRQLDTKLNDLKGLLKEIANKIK
# [5] = target: T5, A3 (h) (Homo sapiens, UniProt P0DMS8); test: CEREP panel; format: binding; conditions: 10 µM
# T5 construct: CEREP
# T5 sequence (P0DMS8 1-318): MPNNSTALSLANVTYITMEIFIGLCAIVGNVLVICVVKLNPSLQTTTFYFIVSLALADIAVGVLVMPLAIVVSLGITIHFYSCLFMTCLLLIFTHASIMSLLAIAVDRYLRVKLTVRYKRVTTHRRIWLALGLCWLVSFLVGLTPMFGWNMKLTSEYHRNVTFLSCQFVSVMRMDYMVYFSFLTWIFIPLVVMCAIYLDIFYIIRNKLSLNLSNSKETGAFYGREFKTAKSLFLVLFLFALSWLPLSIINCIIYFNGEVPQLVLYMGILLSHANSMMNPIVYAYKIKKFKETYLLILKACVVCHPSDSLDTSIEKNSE
# [6] = target: T6, alpha 1A (h) (Homo sapiens, UniProt P35348); test: CEREP panel; format: binding; conditions: 10 µM
# T6 construct: CEREP
# T6 sequence (P35348 1-466): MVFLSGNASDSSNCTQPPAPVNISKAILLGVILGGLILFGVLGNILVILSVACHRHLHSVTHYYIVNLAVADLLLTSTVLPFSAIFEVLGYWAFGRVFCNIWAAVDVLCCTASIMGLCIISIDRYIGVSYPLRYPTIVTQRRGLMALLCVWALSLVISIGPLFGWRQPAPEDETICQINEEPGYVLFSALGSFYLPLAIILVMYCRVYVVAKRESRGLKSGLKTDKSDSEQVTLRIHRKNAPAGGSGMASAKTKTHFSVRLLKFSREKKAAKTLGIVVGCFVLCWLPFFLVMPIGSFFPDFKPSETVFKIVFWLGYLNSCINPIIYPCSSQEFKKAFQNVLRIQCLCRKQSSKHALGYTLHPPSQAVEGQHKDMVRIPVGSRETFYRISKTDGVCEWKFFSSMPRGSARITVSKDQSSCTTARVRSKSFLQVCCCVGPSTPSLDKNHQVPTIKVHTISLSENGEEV
# [7] = tested on: PCP; format: binding; conditions: 10 µM
# [8] = 1 μM
# [9] = target: hCB2R (Homo sapiens, UniProt P34972); parameters: expressed in transfected cells; host or cells: Flp-In-293 (Invitrogen #R750-07), pcDNA5/FRT; conditions: hCB2R
# hCB2R, sequence (P34972 whole entry): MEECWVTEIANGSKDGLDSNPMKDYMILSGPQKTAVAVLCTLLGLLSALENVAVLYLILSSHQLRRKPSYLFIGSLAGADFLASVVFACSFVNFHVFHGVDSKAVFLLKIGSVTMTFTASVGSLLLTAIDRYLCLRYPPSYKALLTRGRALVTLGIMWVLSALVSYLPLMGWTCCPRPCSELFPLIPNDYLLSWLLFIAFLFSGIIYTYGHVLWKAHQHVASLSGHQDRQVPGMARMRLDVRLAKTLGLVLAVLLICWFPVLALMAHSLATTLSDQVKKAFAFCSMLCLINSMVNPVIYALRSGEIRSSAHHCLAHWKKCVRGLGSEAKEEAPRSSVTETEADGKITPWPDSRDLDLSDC
# [10] = vs icilin 0.1μM (second value in cell)
# T1 sequence (P47746 whole entry): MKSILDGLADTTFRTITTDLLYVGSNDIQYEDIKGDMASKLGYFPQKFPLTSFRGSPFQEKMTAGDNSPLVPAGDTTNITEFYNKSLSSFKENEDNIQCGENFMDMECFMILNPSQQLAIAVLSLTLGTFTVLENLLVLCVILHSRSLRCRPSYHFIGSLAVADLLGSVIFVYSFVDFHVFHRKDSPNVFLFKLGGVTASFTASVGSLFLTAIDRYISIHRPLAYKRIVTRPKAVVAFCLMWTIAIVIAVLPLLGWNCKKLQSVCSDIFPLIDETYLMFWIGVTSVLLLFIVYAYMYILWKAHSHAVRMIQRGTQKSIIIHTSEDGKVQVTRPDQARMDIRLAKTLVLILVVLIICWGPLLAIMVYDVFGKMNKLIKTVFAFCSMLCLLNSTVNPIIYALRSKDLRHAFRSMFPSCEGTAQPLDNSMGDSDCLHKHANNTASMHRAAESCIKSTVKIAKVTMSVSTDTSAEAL
compound,measurement,setting,value
COc1ccc(C(=O)c2c(C)n(CCN3CCOCC3)c3cc(I)ccc23)cc1 [AM630],pKi ± SEM mCB1R,[1],5.6 ± 0.298
same,ABHD12 % inhibition,[2],< 25%
same,TRPA1 Efficacy (%AITC 100μM),[3],118.0% and 118±2%
same,EC50,[3],1.9 µM
same,IC50,[3],3.7 ± 0.5 µM
same,IC50,[4]; [10],1.9 ± 0.1 µM
same,IC50,[4]; vs icilin […],4.3 ± 0.3 µM
same,% inhibition A3 (h),[5],76%
same,% inhibition alpha 1A (h),[6],47%
same,% inhibition PCP,[7],9%
same,CL microsomes mouse,[8],468 µL/min/mg protein
Cc1ccc2c(c1)Cc1c(C(=O)NN3CCCCC3)nn(-c3ccc(Cl)cc3Cl)c1-2 [Gp-1a],pKi ± SEM mCB1R,[1],6.37 ± 0.08
same,IC50,"[2]; read-out: ABHD12 IC50 (95% CI), full dose-response",0.8 µM
same,TRPA1 Efficacy (%AITC 100μM),[3],83.6% and 84 ± 1%
same,EC50,[3],2.1 µM
same,IC50,[3],10.4 µM
same,IC50,[4]; vs icilin […],> 50 µM
same,% inhibition A3 (h),[5],95%
same,% inhibition alpha 1A (h),[6],11%
same,% inhibition PCP,[7],-1%
same,CL microsomes mouse,[8],134 µL/min/mg protein
CCCCCCC(C)(C)c1cc(OC)c(C2=C[C@H]3CC[C@]2(CO)C3(C)C)c(OC)c1 [HU910],pKi ± SEM mCB1R,[1],6.14±0.13
same,ABHD12 % inhibition,[2],< 25%
same,TRPA1 Efficacy (%AITC 100μM),[3],33.1%
same,EC50,[3],53.1 µM
same,IC50,[3],> 100 µM
same,IC50,[4]; vs icilin […],> 100 µM
same,% inhibition A3 (h),[5],62%
same,% inhibition alpha 1A (h),[6],1%
same,% inhibition PCP,[7],-25%
same,CL microsomes mouse,[8],464 µL/min/mg protein
same,GIRK-GTPγS bias factor (BF),[9],0.31
same,GIRK-GTPγS ΔΔlogR,[9],-0.51
same,GIRK-cAMP bias factor (BF),[9],2.42
same,GIRK-cAMP ΔΔlogR,[9],0.38 ± 0.20
same,GTPγS-cAMP bias factor (BF),[9],7.73
same,GTPγS-cAMP ΔΔlogR,[9],0.89 ± 0.31
same,LogR GIRK,[9],5.90
same,LogR GTPγS,[9],6.82
same,LogR cAMP,[9],8.37
same,LogR pERK,[9],6.94
same,LogR β-AR,[9],7.72
same,pERK-GIRK bias factor (BF),[9],0.73
same,pERK-GIRK ΔΔlogR,[9],-0.13
same,pERK-GTPγS bias factor (BF),[9],0.23
same,pERK-GTPγS ΔΔlogR,[9],-0.64
same,pERK-cAMP bias factor (BF),[9],1.77
same,pERK-cAMP ΔΔlogR,[9],0.25 ± 0.28
same,β-AR-GIRK bias factor (BF),[9],15.07
same,β-AR-GIRK ΔΔlogR,[9],1.18 ± 0.22
same,β-AR-GTPγS bias factor (BF),[9],4.71
same,β-AR-GTPγS ΔΔlogR,[9],0.67 ± 0.32
same,β-AR-cAMP bias factor (BF),[9],36.90
same,β-AR-cAMP ΔΔlogR,[9],1.57 ± 0.15
same,β-AR-pERK bias factor (BF),[9],20.56
same,β-AR-pERK ΔΔlogR,[9],1.31 ± 0.29
same,ΔLogR GIRK,[9]; reference CP55940,-1.96
same,ΔLogR GTPγS,[9]; reference CP55940,-1.46
same,ΔLogR cAMP,[9]; reference CP55940,-2.35
same,ΔLogR pERK,[9]; reference CP55940,-2.1
same,ΔLogR β-AR,[9]; reference CP55940,-0.78
same,RE GIRK,[9]; relative effectiveness,0.01
same,RE GTPγS,[9]; relative effectiveness,0.03
same,RE cAMP,[9]; relative effectiveness,0.005
same,RE pERK,[9]; relative effectiveness,0.01
same,RE β-AR,[9]; relative effectiveness,0.16
Cc1c(C(=O)c2cccc3ccccc23)c2cccc3c2n1[C@H](CN1CCOCC1)CO3 [WIN55212-2],ABHD12 % inhibition,[2],< 50%
same,TRPA1 Efficacy (%AITC 100μM),[3],72.3% and 72 ± 1%
same,EC50,[3],2.3 µM
same,IC50,[3],6.4 ± 0.6 µM
same,IC50,[4]; [10],19 ± 2.2 µM
same,IC50,[4]; vs icilin […],72.9 ± 4.5 µM
same,% inhibition A3 (h),[5],84%
same,% inhibition alpha 1A (h),[6],15%
same,% inhibition PCP,[7],-3%
same,CL microsomes mouse,[8],745 µL/min/mg protein
CN1CCCC[C@@H]1Cn1cc(C(=O)c2cc([N+](=O)[O-])ccc2I)c2ccccc21 [(R)-AM1241],pKi ± SEM mCB1R,[1],6.36 ± 0.13
same,ABHD12 % inhibition,[2],< 25%
same,TRPA1 Efficacy (%AITC 100μM),[3],19.8%
same,EC50,[3],19.5 µM
same,IC50,[3],> 50 µM
same,IC50,[4]; vs icilin […],> 50 µM
same,CL microsomes mouse,[8],314 µL/min/mg protein
same,GIRK-GTPγS bias factor (BF),[9],0.04
same,GIRK-GTPγS ΔΔlogR,[9],-1.39
same,LogR GIRK,[9],5.48
same,LogR GTPγS,[9],7.3
same,LogR pERK,[9],8.12
same,LogR β-AR,[9],7.21
same,pERK-GIRK bias factor (BF),[9],29.32
same,pERK-GIRK ΔΔlogR,[9],1.47 ± 0.37
same,pERK-GTPγS bias factor (BF),[9],1.18
same,pERK-GTPγS ΔΔlogR,[9],0.07 ± 0.55
same,β-AR-GIRK bias factor (BF),[9],12.13
same,β-AR-GIRK ΔΔlogR,[9],1.08 ± 0.36
same,β-AR-GTPγS bias factor (BF),[9],0.49
same,β-AR-GTPγS ΔΔlogR,[9],-0.31 ± 0.54
same,β-AR-pERK bias factor (BF),[9],0.41
same,β-AR-pERK ΔΔlogR,[9],-0.38 ± 0.39
same,ΔLogR GIRK,[9]; reference CP55940,-2.38
same,ΔLogR GTPγS,[9]; reference CP55940,-0.99
same,ΔLogR pERK,[9]; reference CP55940,-0.91
same,ΔLogR β-AR,[9]; reference CP55940,-1.30
same,RE GIRK,[9]; relative effectiveness,0.004
same,RE GTPγS,[9]; relative effectiveness,0.10
same,RE pERK,[9]; relative effectiveness,0.12
same,RE β-AR,[9]; relative effectiveness,0.05
